We go through 18 molecules from patent US20250085273A1, “NOVEL RAPID DRUG DISCOVERY FOR SEPSIS AND AGENTS FOR USE AS SEPSIS THERAPY” (priority 2023, published 2025).

In test [1] the test system is 3-dpf Zebrafish Embryos Challenged with LPS (P. aeruginosa 60 μg/mL). In kind it is in vivo, Danio rerio. Particulars: P. aeruginosa LPS 60 μg/mL; for Percent Rescue (Mort + Tail Edema): 3-dpf embryos, n=16; for Percent Rescue (Mort + Tail Edema) / rescue of tail edema and mortality (sepsis rescue rate) at 3-dpf: compound 10 μM. On the procedure: Healthy, normally developing embryos collected from the adult AB zebrafish spawning events were treated with 75 μM of 1-phenyl 2-thiourea (PTU) in EM prior to 24 hours post fertilization (hpf) to block pigmentation formation (Karlsson et al, 2001). These embryos were then placed into an incubator at 28.5° C. until they reached 3-dpf. Embryos were then removed from the incubator and plated individually into the wells of 96 well plates containing 50 μL of EM.
A super stock of 120 μg/mL of P. aeruginosa LPS was made up in EM in a glass container. This stock was then used to make sub stocks of 120 μg/mL P. aeruginosa LPS (positive control) and 120 μg/mL P. aeruginosa LPS containing 20 μM of test drug in glass scintillation vials. Immediately after the sub stocks were made, the wells were dosed with either 50 μL of 120 μg/mL of P. aeruginosa, 120 μg/mL of P. aeruginosa with 20 μM of test drug, or EM (1:1 Dilution). Each 96 well plate had one LPS positive control (n=16), 4 different test drugs with P. aeruginosa LPS (n=16 per drug), and one negative control (n=16). Once the plates were dosed, they were covered with parafilm and placed into an incubator at 28.5° C. The plates were removed at 6- and 24-hours post exposure to be scored for tail edema and mortality. All 644 drugs evaluated for rescue from mortality and tail edema induced by P. aeruginosa LPS exposure as compared to LPS-treated controls after 24 hours of exposure.
3-dpf embryos were challenged with 60 μg/mL P. aeruginosa LPS in combination with single 10 μM concentration of each compound for 24 hours (n=16 fish per compound). […] Other 29 compounds exceeded 60% rescue of tail edema and mortality at 24 hours post exposure.

The subject of test [2] is zebrafish (4 dpf pre-treated, LPS exposure at 5-dpf) challenged with P. aeruginosa LPS 60 μg/mL. In kind it is in vivo, Danio rerio. The following applies: number of n = 16 fish. The protocol: Drugs identified with >80% rescue were subjected to additional testing. Drug pretreatment for 24 hours prior to LPS challenge was evaluated to determine if any prophylactic benefit could be realized with any of the top rescue drugs. The intent was to determine if drug pre-treatment might be used at the point of injury as a preventative therapeutic before the onset of infection and development of sepsis. Parallel groups of fish received a 24-hour drug pre-treatment or no drug pre-treatment prior to LPS challenge. For this test, 4 dpf PTU-treated zebrafish embryos were placed into 96 well plates containing 100 μL of EM. […] All plates were covered with parafilm and placed into an incubator at 28.5° C. for 24 hours. […] Once the plates were dosed, they were covered with parafilm and placed into an incubator at 28.5° C. The plates were removed at 6- and 24-hours post exposure and scored for tail edema and mortality. Once the 24-hour tail edema and mortality endpoints were collected, a neurobehavioral test was conducted as described in section 2.8.

The mark [3] stands for this setting: 24-hour 10 μM drug pre-treatment.

Where a name gives a salt, the structure may show the parent alone. Read-outs that look alike come from different tables or passages of the source.

With `O=C(Nc1nc(-c2cc(Cl)cs2)c(N2CCN(C3CCCCC3)CC2)s1)c1cnc(N2CCC(C(=O)O)CC2)c(Cl)c1` [Compound 3, Avatrombopag (hydrochloride)], in test [1] (24 hours, hydrochloride), the “Percent Rescue (Mort + Tail Edema)” value amounted to 56%.
Turning to `Cc1nc2n(c(=O)c1CCN1CCC(c3noc4cc(F)ccc34)CC1)CCCC2` [Compound 4, Risperidone], the “rescue of tail edema and mortality (sepsis rescue rate) at 3-dpf” value (from here on “rescue of tail edema and mortality”) in test [1] (3-dpf, 24 hours) was found to be 6%.
Regarding `CC(C)NCC(O)COc1cccc2[nH]ccc12` (stereo not shown) [Compound 12, Pindolol], the “Percent Rescue (Mort + Tail Edema)” value in test [1] (24 hours) was determined as 56%.
As to `Cc1nc2n(c(=O)c1CCN1CCC(c3noc4cc(F)ccc34)CC1)CCCC2O` (stereo not shown) [Compound 61, Paliperidone], in test [1] (3-dpf, 24 hours), the “rescue of tail edema and mortality” value worked out at 6%.
In the case of `Clc1ccc(CCCOCCCN2CCCCC2)cc1` [Compound 126, Pitolisant hydrochloride], the “rescue of tail edema and mortality” value in test [1] (3-dpf, 24 hours, hydrochloride) is 38%.
Consider `CC(C)(C(=O)O)c1ccc(C(O)CCCN2CCC(C(O)(c3ccccc3)c3ccccc3)CC2)cc1` (stereo not shown) [Compound 137, Fexofenadine], for which the “rescue of tail edema in 3-dpf initial screen” value in test [1] (3-dpf) is “did not rescue tail edema”. For the same molecule, in test [1] (3-dpf, 24 hours), the “mortality (survival) in 3-dpf initial screen” value is “did rescue mortality”.
As for `CN(C)CCOC(C)(c1ccccc1)c1ccc(Cl)cc1` (stereo not shown) [Compound 157, Chlorphenoxamine], the “Percent Rescue (Mort + Tail Edema)” value in test [1] (24 hours) turned out to be 50%.
For the molecule `O=C(O)c1cc2ccccc2c(Cc2c(O)c(C(=O)O)cc3ccccc23)c1O.OCCOCCN1CCN(C(c2ccccc2)c2ccc(Cl)cc2)CC1` [Compound 207, Hydroxyzine (pamoate)], the “Percent Rescue (Mort + Tail Edema)” value in test [1] (24 hours) stood at 50%.
On to `CNCCc1ccccn1` [Compound 310, Betahistine], for which the “Percent Rescue (Mort + Tail Edema)” value in test [1] (24 hours) amounted to 56%.
On the same count and under the same terms, next, `C[C@H]1N=C(N(C)C)N=C(N)N1` [Compound 317, Imeglimin (hydrochloride)]: 50%; `CN1CCc2c(c3ccccc3n2Cc2ccccc2)C1` [Compound 318, Mebhydrolin]: 56%.
Same read-out and setting: for `CNCC[C@H](Oc1cccc2ccccc12)c1cccs1` [Compound 386, Duloxetine (hydrochloride)] the value was 50%; for `CNS(=O)(=O)CCc1ccc2[nH]cc(C3CCN(C)CC3)c2c1` [Compound 438, Naratriptan (hydrochloride)], 50%; for `COc1cc2ncnc(Nc3ccc(F)c(Cl)c3)c2cc1OCCCN1CCOCC1` [Compound 516, Gefitinib (ZD1839)], 50%.
Turning to `CCN(CC)CC(=O)Nc1c(C)cccc1C` [Compound 549, Lidocaine hydrochloride], the “Percent Rescue (Mort + Tail Edema)” value in test [1] (24 hours) was 56%.
For the molecule `Clc1ccc(CCCOCCCN2CCCCC2)cc1` [Compound 589, Pitolisant hydrochloride], in test [1] (24 hours, hydrochloride), the “Percent Rescue (Mort + Tail Edema)” value worked out at 56%. In addition, the “rescue of tail edema and mortality” value in test [1] (3-dpf, 24 hours, hydrochloride) was 56%.
For the molecule `CC(C)(C)c1cc(NC(=O)Nc2ccc(-c3cn4c(n3)sc3cc(OCCN5CCOCC5)ccc34)cc2)no1` [Compound 598, Quizartinib (AC220)], the “Percent Rescue (Mort + Tail Edema)” value in test [1] (24 hours) was determined as 56%.
In the case of `CCN(CC)CCNC(=O)c1c(C)[nH]c(/C=C2\C(=O)Nc3ccc(F)cc32)c1C.O=C(O)C[C@H](O)C(=O)O` [Sunitnib (malate)], the “24 hour Tail Edema, No-Drug Pretreatment” value in test [2] (10 μM drug with LPS 60 μg/mL, no 24-hour pre-treatment) came out at 4 fish. In addition, in test [2] (setting [3]), the “24 Hour Mortality and Tail Edema, Drug Pretreatment” value is 2 fish; the “24 Hour Mortality, Drug Pretreatment” value came to 1 fish. For the same molecule, the “24 hour Tail Edema, Drug Pretreatment” value in test [2] (24-hour 10 μM drug pre-treatment before LPS 60 μg/mL) is recorded as 1 fish. Further, in test [2] (no 24-hour pre-treatment), the “24 Hour Mortality and Tail Edema, No-Drug Pretreatment” value is reported as 5 fish; the “24 Hour Mortality, No Drug Pretreatment” value came to 1 fish.
